Reference: patent US20220105051A1, “COMPOUNDS FOR INCREASING MHC-I EXPRESSION AND MODULATING HISTONE DEACETYLASE ACTIVITY” (Cava Healthcare Inc., priority 2019, published 2022)
Entries after “also recorded” stand apart in the source; their conditions may differ.

What was measured:
Maximum tolerated dose = format: in vivo; conditions: for MTD at 14 days: female, C57BL/6, mouse, in vivo, ip, limited by solubility in 1% DMSO, read-out: highest maximum tolerated dose; for signs of toxicity (clinical signs, necropsy): i.p. 1.0, 3.5 and 5.2 mg/kg, 14 days, C57BL/6 mice
Description: British Columbia Cancer Agency (BCCA) completed the maximum tolerated dose study for compound P02-113, whereas P03-97-1 was assessed in-house following the same protocol. […]. The compounds were injected intraperitoneally (i.p.) at concentrations of 1.0 mg/kg (n=3), 3.5 mg/kg (n=3), or 5.2 mg/kg (n=3). These doses were based on the maximum solubility of the compounds that was determined using the known solubility of curcuphenol. Mice were assessed for clinical signs of toxicity for 14 days following injection. After 14 days the mice were euthanized and examined by necropsy, P02-113 was performed at BCCA, and P03-97-1 was performed by Animal Care Services located at the Center for Comparative Medicine on UBC Point Grey campus, Vancouver BC.
In vivo efficacy studies. Maximum tolerated dose (MTD). The maximum tolerated dose for the selected compounds, P02-113 and P03-97-1, were assessed in vivo. C57BI/6 mice were injected intraperitoneally (i.p.) with the test compounds at 3 different concentrations: 1.0 mg/kg (n=3), 3.5 mg/kg (n=3) and 5.2 mg/kg (n=3). Mice were then assessed for 14 days for clinical signs of toxicity and at the end point a necropsy was performed. […]

HDAC3 = biological target: T1, HDAC3 (Homo sapiens, UniProt O15379); assay: Individualized HDAC assay, HDAC3; format: biochemical; conditions: purified enzyme, 5 to 0.02 μM
T1 construct: purchased BPS Biosciences
Description: The activity of the curcuphenol analogues was assessed with purified HDAC enzymes from all classes I, II, and IV, as well as a select member of HDAC class III (SIRT1). HDACs 1-9 and SIRT1 were evaluated using HDAC Fluorogenic Assay Kits (BPS Biosciences). All assays were completed in black-sided clear-bottom 96 well plates (PerkinElmer), and all treatments were plated in triplicates. Treatment started at 5 μM and was two-fold diluted to a concentration 0.02 μM. The assays were measured using the Synergy HI hybrid reader (BioTek) and Gen5 software (BioTek), excitation was set to 360 nm and detection was measured at 450 nm with a gain of 100. […] Luminescence was read 30 minutes after HDAC-Glo™I/II reagent was added using the Synergy HI hybrid reader (BioTek) and Gen5 software (Bio-Tek). […] The relative mean of activity of the HDAC being measured was determined and all wells that received treatment were divided this average, to give a percentage of activity.
To evaluate the effect of the compounds on specific HDACs, their activity was assessed with purified HDAC enzymes from all classes I, II, and IV, as well as a select member of HDAC class III (SIRT1). HDACs 1-9 and SIRT1 were evaluated using HDAC Fluorogenic Assay Kits (BPS Biosciences) following the manufacturer's recommendations. […] The assays were measured using the Synergy HI hybrid reader (BioTek) and Gen5 software (Bio-Tek). […]

HDAC6 = biological target: T2, HDAC6 (Homo sapiens, UniProt Q9UBN7); assay: Individualized HDAC assay, HDAC6; format: biochemical; conditions: purified enzyme, 5 to 0.02 μM
T2 construct: purchased BPS Biosciences
T2 sequence (Q9UBN7 1-1215): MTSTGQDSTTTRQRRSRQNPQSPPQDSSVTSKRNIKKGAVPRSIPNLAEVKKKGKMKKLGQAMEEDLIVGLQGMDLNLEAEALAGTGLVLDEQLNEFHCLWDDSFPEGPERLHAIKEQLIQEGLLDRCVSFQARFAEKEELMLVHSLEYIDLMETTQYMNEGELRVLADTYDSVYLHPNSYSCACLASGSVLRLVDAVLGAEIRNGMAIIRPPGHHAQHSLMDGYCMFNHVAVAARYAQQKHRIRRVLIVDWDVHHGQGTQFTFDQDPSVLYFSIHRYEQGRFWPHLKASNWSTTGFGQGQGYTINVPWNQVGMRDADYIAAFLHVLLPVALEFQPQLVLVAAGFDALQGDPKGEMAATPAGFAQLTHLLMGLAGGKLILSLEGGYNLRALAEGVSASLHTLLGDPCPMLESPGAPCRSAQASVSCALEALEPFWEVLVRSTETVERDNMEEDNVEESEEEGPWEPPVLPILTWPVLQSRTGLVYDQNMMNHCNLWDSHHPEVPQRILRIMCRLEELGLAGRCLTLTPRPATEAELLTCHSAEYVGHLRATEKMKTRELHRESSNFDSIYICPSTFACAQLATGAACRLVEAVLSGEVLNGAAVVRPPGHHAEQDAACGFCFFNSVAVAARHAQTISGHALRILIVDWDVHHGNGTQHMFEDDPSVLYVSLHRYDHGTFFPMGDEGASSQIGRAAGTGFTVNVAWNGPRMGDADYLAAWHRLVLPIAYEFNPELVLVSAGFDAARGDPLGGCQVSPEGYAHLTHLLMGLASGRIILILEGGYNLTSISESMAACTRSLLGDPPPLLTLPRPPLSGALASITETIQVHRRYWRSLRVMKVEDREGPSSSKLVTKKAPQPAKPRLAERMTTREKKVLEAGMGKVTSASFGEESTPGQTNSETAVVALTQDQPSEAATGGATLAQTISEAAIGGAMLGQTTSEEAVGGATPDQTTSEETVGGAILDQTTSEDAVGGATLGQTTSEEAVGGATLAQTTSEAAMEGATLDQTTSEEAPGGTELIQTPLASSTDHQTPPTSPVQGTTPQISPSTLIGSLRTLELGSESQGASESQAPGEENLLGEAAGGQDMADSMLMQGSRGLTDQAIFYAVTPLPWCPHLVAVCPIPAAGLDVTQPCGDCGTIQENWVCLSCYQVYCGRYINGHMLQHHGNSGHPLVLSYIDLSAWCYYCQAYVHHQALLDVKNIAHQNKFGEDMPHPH
Description: The activity of the curcuphenol analogues was assessed with purified HDAC enzymes from all classes I, II, and IV, as well as a select member of HDAC class III (SIRT1). HDACs 1-9 and SIRT1 were evaluated using HDAC Fluorogenic Assay Kits (BPS Biosciences). All assays were completed in black-sided clear-bottom 96 well plates (PerkinElmer), and all treatments were plated in triplicates. Treatment started at 5 μM and was two-fold diluted to a concentration 0.02 μM. The assays were measured using the Synergy HI hybrid reader (BioTek) and Gen5 software (BioTek), excitation was set to 360 nm and detection was measured at 450 nm with a gain of 100. Alternatively HDAC 10 and 11 (BPS Biosciences) were optimized for HDAC concentration using the HDAC-Glo™ I/II Assay and Screening System (Promega). Following optimization each HDAC was run following the Promega protocol in black-sided clear-bottomed 96 well plates in triplicates with same treatments listed above (PerkinElmer). Luminescence was read 30 minutes after HDAC-Glo™I/II reagent was added using the Synergy HI hybrid reader (BioTek) and Gen5 software (Bio-Tek). […] To calculate percent activity, the average of blank wells was subtracted from all treatment groups. The relative mean of activity of the HDAC being measured was determined and all wells that received treatment were divided this average, to give a percentage of activity.
To evaluate the effect of the compounds on specific HDACs, their activity was assessed with purified HDAC enzymes from all classes I, II, and IV, as well as a select member of HDAC class III (SIRT1). HDACs 1-9 and SIRT1 were evaluated using HDAC Fluorogenic Assay Kits (BPS Biosciences) following the manufacturer's recommendations. Compound treatment started at 5 μM and was two-fold diluted to a concentration 0.02 μM. […] The assays were measured using the Synergy HI hybrid reader (BioTek) and Gen5 software (Bio-Tek). […] To calculate the fold change in HDAC activity, the values from each treated well were divided by the relative mean of activity of the specific HDAC being measured.

T1 sequence (O15379 whole entry): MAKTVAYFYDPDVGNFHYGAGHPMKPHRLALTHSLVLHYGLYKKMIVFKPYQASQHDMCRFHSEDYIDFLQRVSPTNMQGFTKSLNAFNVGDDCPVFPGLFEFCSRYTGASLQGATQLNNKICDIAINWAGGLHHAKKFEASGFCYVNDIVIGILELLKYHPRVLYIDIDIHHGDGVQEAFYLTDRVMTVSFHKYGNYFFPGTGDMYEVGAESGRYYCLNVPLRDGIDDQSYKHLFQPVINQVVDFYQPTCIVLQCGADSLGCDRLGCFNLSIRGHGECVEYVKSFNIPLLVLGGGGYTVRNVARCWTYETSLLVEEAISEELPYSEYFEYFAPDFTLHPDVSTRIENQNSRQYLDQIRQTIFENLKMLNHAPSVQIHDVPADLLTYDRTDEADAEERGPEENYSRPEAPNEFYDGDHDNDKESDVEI
T1 sequence (Q9Y618 395-489 partner limits assumed): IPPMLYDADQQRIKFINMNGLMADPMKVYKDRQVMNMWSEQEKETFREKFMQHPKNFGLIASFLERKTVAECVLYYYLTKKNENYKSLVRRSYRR

| Structure (SMILES) | MTD at 14 days (Maximum tolerated dose) [mg/kg] | signs of toxicity (clinical signs, necropsy) (Maximum tolerated dose) | HDAC3 activity (HDAC3) | HDAC6 activity (HDAC6) | HDAC6 activity (HDAC6; listed as PO-3-97-1) |
| --- | --- | --- | --- | --- | --- |
| CC(C)=CCCCc1ccc(C)cc1O [P02-113] | 5.2 | no signs of toxicity or abnormalities; also recorded: no adverse drug effects | no significant change in HDAC activity | no change in activity; also recorded: did not affect the activity; also recorded: unaffected |  |
| COc1ccc(C(C)CCC=C(C)C)c(O)c1 (stereo not drawn) [P03-97-1] | 5.2 | no signs of toxicity or abnormalities; also recorded: no adverse drug effects | no significant change in HDAC activity | no change in activity; also recorded: unaffected | did not affect the activity |
